Data on two molecules can be found in patent US11446279B2 (priority 2017, dated 2022).

Molecules are shown by their SMILES. Converted amounts (≈) assume the structure as drawn. Like-named read-outs stand apart in the source and are kept apart here.

One assay has as its system A. baumannii (Resistant). In words: MIC against A. baumannii (Resistant). Type of assay: cell-based, Acinetobacter baumannii.
The test system of a further assay is P. aeruginosa SFGH 427. The experiment in a line: MIC against P. aeruginosa SFGH 427. Type of assay: cell-based, Pseudomonas aeruginosa.
The subject of a further assay is E. coli (KAN). The experiment in a line: microbe, parasite or virus in culture. Type of assay: cell-based, Escherichia coli.
Another assay has as its system E. coli SFGH 207. The experiment in a line: MIC against E. coli SFGH 207. Type of assay: cell-based, Escherichia coli.
In the next assay the test system is E. coli (AMP). In words: MIC against E. coli (AMP). Type of assay: cell-based, Escherichia coli.
Another assay has as its system P. aeruginosa SFGH 266. The experiment in a line: MIC against P. aeruginosa SFGH 266. The class given is cell-based, Pseudomonas aeruginosa.
The subject of another assay is A. baumannii (Sensitive). The experiment in a line: MIC against A. baumannii (Sensitive). The class given is cell-based, Acinetobacter baumannii.
The test system of another assay is E. coli ATCC25922. The experiment in a line: MIC against E. coli ATCC25922. The class given is cell-based, Escherichia coli.
The subject of another assay is MRSA. In words: MIC against MRSA. The class given is cell-based, Methicillin-resistant Staphylococcus aureus.
In assay [1] the test system is drug-resistant GNBs such as Pseudomonas aeruginosa, Escherichia coli, and Acinetobacter baumannii. The experiment in a line: Growth inhibition of drug-resistant GNBs. To be noted: in words; E. coli species, A. baumannii, P. aeruginosa / gram-negative bacteria. Type of assay: cell-based.
Where [2] appears, read: range stated jointly for MRSA and E. coli (ATCC 25922).

Take `O=[N+]([O-])c1sccc1S(=O)(=O)F` [compound 1, 2-nitrothiophene-3-sulfonyl fluoride]: the MICs was 42 µg/mL in the assay on A. baumannii (Resistant); 84 µg/mL against P. aeruginosa SFGH 427; 0.66 µg/mL against E. coli (KAN) (E. coli (KAN)); 42 µg/mL in the assay on E. coli SFGH 207; 10.6 µg/mL against E. coli (AMP); 42 µg/mL against P. aeruginosa SFGH 266. Also, the MICs against A. baumannii (Sensitive) turned out to be 21 µg/mL; in the assay on E. coli ATCC25922 (E. coli ATCC25922), 1.32 µg/mL; against MRSA (MRSA), 5.28 µg/mL. In addition, the MIC against E. coli ATCC25922 (setting [2]) and against MRSA (setting [2]) was 1 to 5 µg/mL throughout. In addition, in assay [1], the antibacterial activity result was “active”.

`O=C1CN(/N=C/c2ccc([N+](=O)[O-])o2)C(=O)N1` [nitrofurantoin 7, nitrofurantoin, reference compound]: the MIC in the assay with A. baumannii (Resistant) (Acinetobacter baumannii) is above 95 µg/mL; in the assay on P. aeruginosa SFGH 427 (Pseudomonas aeruginosa, SFGH427) it was above 95 µg/mL; in the assay on E. coli (KAN) (Escherichia coli, read-out: MICs), 0.37 µg/mL (≈ 1.55 µM); against E. coli SFGH 207 (Escherichia coli, SFGH207), 6 µg/mL (≈ 25.2 µM); against E. coli (AMP) (Escherichia coli) it was 6 µg/mL (≈ 25.2 µM); in the assay with P. aeruginosa SFGH 266 (Pseudomonas aeruginosa, SFGH266), above 95 µg/mL. Moreover, the MIC was above 95 µg/mL in the assay on A. baumannii (Sensitive) (Acinetobacter baumannii); 5 to 12 µg/mL (≈ 21 to 50.4 µM) with E. coli ATCC25922 (Escherichia coli, ATCC25922, range stated jointly for MRSA and E. coli (ATCC 25922), read-out: MIC); 3 µg/mL (≈ 12.6 µM) with E. coli ATCC25922 (Escherichia coli, E. coli ATCC25922, read-out: MICs); 5 to 12 µg/mL (≈ 21 to 50.4 µM) in the assay on MRSA (Staphylococcus aureus, ATCC 25922 / MRSA, range stated jointly for MRSA and E. coli (ATCC 25922), read-out: MIC); 12 µg/mL (≈ 50.4 µM) in the assay on MRSA (Staphylococcus aureus, MRSA, read-out: MICs).
